Entries after “also recorded” stand apart in the source; their conditions may differ.

The values that follow come from patent publication US7674596B2 (priority 2005, dated 2010).

Assay type in all cases: cell-based
Assay [1] deals with T1, T-type α1H channel (Homo sapiens, UniProt O95180).
T1 construct: expressed in transfected cells; clone #30, KCTC 10780BP
Description: Fura-2/AM ratio fluorescence (F340/F380) calcium assay in single cell of clone #30 (HEK293-TChH-IRK2.1) depolarized by KCl. Particulars: depolarization by 60 mM KCl, pre-treatment with mibefradil (3 μM elsewhere in the source). On the procedure: (§1) Intracellular calcium concentrations were measured by the ratio fluorescence system (Ratiomaster, Photon Technology International, USA) installed on a fluorescent microscope (Nikon TE2000, Japan) as well as CoolSNAP CCD imaging system (Loafer Scientific, USA). Particularly, Fura-2/AM or Fluo-3 (Molecular Probes, USA) was added up to 5 μM to cells cultured on a cover slip, followed by loading at room temperature for 30-60 minutes with the light blocked. After the loading, the cells were washed twice with an extracellular flushing medium, and then the cover slip, on which the cells were stuck, was put on a perfusion chamber on the microscope. In the case of Fura-2/AM, the changes in the intracellular calcium (Ca^2+) concentration were measured using a photomultiplier (PM) tube in the ratio of fluorescence (F340/F380 t) emitted at 510 nm when 340 nm and 380 nm were used for excitation respectively. When Fluo-3 was used, fluorescent ratios were not measured but the fluorescent image emitted at 525 nm was recorded and captured by a cooled CCD, which was then analyzed by the Metaimage 6.1 program (Imaging Corporation, USA).

The target in assay [2] is T1, T-type α1H channel. Description: Fluo-3 fluorescent calcium imaging (cooled CCD) in clone #30 cells (HEK293-TChH-IRK2.1). The following applies: for increase of intracellular calcium signal (fluorescent image) upon KCl depolarization: 60 mM KCl. On the procedure: as §1
To measure fluorescent calcium image, Fluo-3 was loaded to clone #30 cells.
(Calcium flux is commonly read through the fluorescence of an indicator in the cells.)

In assay [3] the target is T2, human potassium channel Kir2.1 (Homo sapiens, UniProt P63252).
T2 construct: expressed in transfected cells; host or cells: HEK293 stably expressing human T-type α1H; clone #30 (HEK293-TChH-IRK2.1, KCTC 10780BP)
T2 sequence (P63252 1-427): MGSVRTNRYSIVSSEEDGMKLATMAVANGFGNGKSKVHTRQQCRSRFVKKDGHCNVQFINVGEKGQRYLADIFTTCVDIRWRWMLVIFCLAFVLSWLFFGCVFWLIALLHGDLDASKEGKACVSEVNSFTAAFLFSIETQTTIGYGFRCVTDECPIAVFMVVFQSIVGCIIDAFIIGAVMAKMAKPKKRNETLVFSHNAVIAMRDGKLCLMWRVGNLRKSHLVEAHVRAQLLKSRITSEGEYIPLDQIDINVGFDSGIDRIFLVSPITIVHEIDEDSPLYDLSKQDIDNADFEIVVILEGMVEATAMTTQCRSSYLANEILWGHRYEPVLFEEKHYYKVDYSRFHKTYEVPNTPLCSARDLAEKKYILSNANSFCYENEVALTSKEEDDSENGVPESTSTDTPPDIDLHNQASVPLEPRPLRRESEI
Description: Whole-cell ruptured patch-clamp recording of inwardly rectifying potassium (IRK) current in clone #30. The following applies: Ba^2+, voltage clamp. Also noted: dose or concentration left out as unconfirmed. On the procedure:
(§2) The procedures and conditions of the experiment were as follows. The T-type calcium current and inwardly rectifying potassium current (referred as “IRK current” hereinafter) were recorded by the whole-cell ruptured patch-clamp method (Hamil et al., Pflugers Arch., 391:85-100, 198; Jeong and Ikeda, Neuron, 21:1201-1212, 1998), a voltage clamp technique, to confirm which clone could best express the human T-type α1H channel and human potassium channel Kir2.1. In the meantime, the resting membrane potential of the clones that were confirmed by the measurement of calcium and potassium currents was monitored by the gramicidin-perforated current-clamp method (Akaike, Prog. Biophys. Mol. Biol., 65:251-264, 1997).
(§3) The patch electrode used in the measurement above was prepared with a borosilicate glass tube (Corning, USA) by a P-97 flaming brown micro-pipette puller (Sutter Instrument, USA). […] The cell capacitance and series resistance were adjusted to more than 80% by using Axopatch-1D (Axon Instruments, USA) or EPC-10 amplifier (HEKA, Germany). S4 (prepared by Dr. Stephen R. Ikeda, USA) using ITC18 (Instrutech, USA) or Pulse (HEKA, Germany) was used for the generation and data collection of the voltage-stimulating protocol. […] The results were recorded in a computer. […]
(§4) The T-type α1H channel current, activated at −50 mV and showing maximum activity at −30 mV, was recorded as well. […]
(In general: The patch-clamp technique gives a direct electrical read-out from membranes.)

The target in assay [4] is T2, human potassium channel Kir2.1. Description: Gramicidin-perforated current-clamp measurement of membrane potential of clone #30. Particulars: 100 μM barium. Here is the method: as §2, §3, §4

T1 sequence (O95180 whole entry): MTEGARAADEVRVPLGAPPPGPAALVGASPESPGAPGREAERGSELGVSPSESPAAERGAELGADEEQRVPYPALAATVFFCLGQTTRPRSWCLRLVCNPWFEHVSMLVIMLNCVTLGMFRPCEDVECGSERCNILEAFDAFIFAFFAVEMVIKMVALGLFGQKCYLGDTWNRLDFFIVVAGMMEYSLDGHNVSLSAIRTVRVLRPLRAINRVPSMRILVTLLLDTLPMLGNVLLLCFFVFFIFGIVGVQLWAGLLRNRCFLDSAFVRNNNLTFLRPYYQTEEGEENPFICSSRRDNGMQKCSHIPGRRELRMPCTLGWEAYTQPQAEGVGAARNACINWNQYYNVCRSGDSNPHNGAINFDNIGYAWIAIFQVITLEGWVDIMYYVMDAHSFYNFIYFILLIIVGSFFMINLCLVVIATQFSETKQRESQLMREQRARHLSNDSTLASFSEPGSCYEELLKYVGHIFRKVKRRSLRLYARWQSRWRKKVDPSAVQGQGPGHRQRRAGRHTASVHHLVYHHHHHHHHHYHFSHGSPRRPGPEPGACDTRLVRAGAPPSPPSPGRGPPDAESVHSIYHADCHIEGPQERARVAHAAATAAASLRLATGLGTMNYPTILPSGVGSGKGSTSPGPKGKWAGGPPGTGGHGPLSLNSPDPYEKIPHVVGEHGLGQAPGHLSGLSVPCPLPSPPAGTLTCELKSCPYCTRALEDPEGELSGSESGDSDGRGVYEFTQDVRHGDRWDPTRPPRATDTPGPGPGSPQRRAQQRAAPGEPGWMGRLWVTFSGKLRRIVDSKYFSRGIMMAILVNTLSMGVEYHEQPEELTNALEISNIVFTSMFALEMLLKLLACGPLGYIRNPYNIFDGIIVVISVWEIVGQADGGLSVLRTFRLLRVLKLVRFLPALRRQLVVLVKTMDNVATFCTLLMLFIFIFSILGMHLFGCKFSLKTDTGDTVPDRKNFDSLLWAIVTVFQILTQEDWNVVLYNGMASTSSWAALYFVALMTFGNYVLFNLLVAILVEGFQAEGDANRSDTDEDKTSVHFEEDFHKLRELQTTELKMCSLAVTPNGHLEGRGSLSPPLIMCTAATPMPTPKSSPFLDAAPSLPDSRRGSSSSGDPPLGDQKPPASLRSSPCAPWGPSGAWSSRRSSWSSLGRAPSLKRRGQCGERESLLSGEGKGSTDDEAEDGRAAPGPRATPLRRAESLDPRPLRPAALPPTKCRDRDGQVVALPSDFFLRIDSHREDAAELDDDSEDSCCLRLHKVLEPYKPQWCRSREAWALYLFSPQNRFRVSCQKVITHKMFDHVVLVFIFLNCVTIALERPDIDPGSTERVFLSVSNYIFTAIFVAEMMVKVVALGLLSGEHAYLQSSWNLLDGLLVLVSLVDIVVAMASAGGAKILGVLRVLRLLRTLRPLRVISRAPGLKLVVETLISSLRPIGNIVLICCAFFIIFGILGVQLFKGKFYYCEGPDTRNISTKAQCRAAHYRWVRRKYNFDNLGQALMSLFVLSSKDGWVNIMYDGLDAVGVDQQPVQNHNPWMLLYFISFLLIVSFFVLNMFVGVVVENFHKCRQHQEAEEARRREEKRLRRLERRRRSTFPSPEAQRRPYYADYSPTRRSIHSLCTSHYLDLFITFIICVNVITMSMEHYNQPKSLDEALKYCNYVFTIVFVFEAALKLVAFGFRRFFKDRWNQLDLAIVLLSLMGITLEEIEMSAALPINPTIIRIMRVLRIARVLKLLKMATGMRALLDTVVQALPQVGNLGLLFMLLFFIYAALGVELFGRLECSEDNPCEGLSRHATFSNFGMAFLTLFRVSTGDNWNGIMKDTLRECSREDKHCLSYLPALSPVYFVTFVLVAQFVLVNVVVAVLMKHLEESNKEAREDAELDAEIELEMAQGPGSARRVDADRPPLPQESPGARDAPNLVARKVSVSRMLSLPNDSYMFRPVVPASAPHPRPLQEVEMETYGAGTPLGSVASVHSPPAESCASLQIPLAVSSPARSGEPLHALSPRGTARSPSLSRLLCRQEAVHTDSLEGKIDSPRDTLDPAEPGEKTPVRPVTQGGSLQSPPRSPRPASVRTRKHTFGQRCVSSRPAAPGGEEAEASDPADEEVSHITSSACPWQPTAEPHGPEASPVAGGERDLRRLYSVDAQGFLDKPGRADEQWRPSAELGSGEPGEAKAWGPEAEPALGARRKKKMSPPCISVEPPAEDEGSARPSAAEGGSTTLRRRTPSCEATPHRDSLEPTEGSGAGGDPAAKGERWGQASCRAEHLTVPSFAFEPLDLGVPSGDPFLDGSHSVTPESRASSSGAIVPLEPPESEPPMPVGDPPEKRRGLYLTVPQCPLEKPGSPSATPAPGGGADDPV

`COCC(=O)O[C@]1(CCN(C)CCCc2nc3ccccc3[nH]2)CCc2cc(F)ccc2[C@@H]1C(C)C` [mibefradil]: the “increase in intracellular calcium (F340/F380 ratio) by influx through T-type α1H channels” value on T-type α1H channel [1] is recorded as “completely blocked; also recorded: completely inhibited”. For the same molecule, the “increase of intracellular calcium signal (fluorescent image) upon KCl depolarization” value on T-type α1H channel [2] (pre-treatment with mibefradil (3 μM elsewhere in the source)) was “completely inhibited; also recorded: completely blocked”. The “intracellular calcium level at non-depolarized resting phase (number of red cells)” value on T-type α1H channel [2] (no KCl, mibefradil (3 μM elsewhere in the source)) is reported as “reduced remarkably; also recorded: remarkably reduced”.

As to `[Ni+2]` [Ni^2+, nickel (Ni^2+)], the “increase of intracellular calcium signal (fluorescent image) upon KCl depolarization” value on T-type α1H channel [2] (pre-treatment with 100 μM nickel) and at T-type α1H channel [2] (pre-treatment with 100 mM Ni^2+) was “completely inhibited” each time.

For `[Ba+2]` [Ba^2+, barium], the IRK current entry in assay [3] is on record as “blocked”. For the same molecule, the membrane potential response result in assay [4] is given as “Ca^2+ spikes or action potentials were induced with depolarization”.
